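Cells were grown in 96-well plates and exposed to each compound for 48 hours at five concentrations; endpoints were interpolated linearly between bracketing concentrations, or set to the highest concentration if not reached. The concentration for 50% growth inhibition is given as GI50. TGI: total growth inhibition.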
Legend:
Test in all cases: DTP human tumour cell line panel, 48 h
[1] = test system: A498 renal
[2] = test system: A549 NSCLC
[3] = test system: CAKI-1 renal
[4] = test system: CCRF-CEM leukemia
[5] = test system: DU-145 prostate
[6] = test system: EKVX NSCLC
[7] = test system: HOP-62 NSCLC
[8] = test system: HOP-92 NSCLC
[9] = test system: HS 578T breast
[10] = test system: K-562 leukemia
[11] = test system: LOX IMVI melanoma
[12] = test system: MDA-MB-231 breast
[13] = test system: MDA-MB-435
[14] = test system: NCI-H226 lung
[15] = test system: NCI/ADR-RES ovarian
[16] = test system: OVCAR-4 ovarian
[17] = test system: OVCAR-5 ovarian
[18] = test system: RPMI-8226 leukemia
[19] = test system: SF-268 CNS
[20] = test system: SK-MEL-2 melanoma
[21] = test system: SK-OV-3 ovarian
[22] = test system: SNB-75 CNS
[23] = test system: SR leukemia
[24] = test system: T-47D breast
[25] = test system: TK-10 renal
[26] = test system: UACC-257 melanoma
[27] = test system: 786-0 renal
[28] = test system: ACHN renal
[29] = test system: BT-549 breast
[30] = test system: COLO 205 colon
[31] = test system: HCC-2998 colon
[32] = test system: HCT-116 colon
[33] = test system: HCT-15 colon
[34] = test system: HL-60(TB) leukemia
[35] = test system: HT29 colon
[36] = test system: IGROV1 ovarian
[37] = test system: KM12 colon
[38] = test system: M14 melanoma
[39] = test system: MALME-3M melanoma
[40] = test system: MCF7 breast
[41] = test system: MOLT-4 leukemia
[42] = test system: NCI-H23 lung
[43] = test system: NCI-H460 lung
[44] = test system: NCI-H522 lung
[45] = test system: OVCAR-8 ovarian
[46] = test system: PC-3 prostate
[47] = test system: RXF 393 renal
[48] = test system: SF-295 CNS
[49] = test system: SF-539 CNS
[50] = test system: SK-MEL-28 melanoma
[51] = test system: SK-MEL-5 melanoma
[52] = test system: SN12C renal
[53] = test system: SNB-19 CNS
[54] = test system: SW-620 colon
[55] = test system: U251 CNS
[56] = test system: UACC-62 melanoma
[57] = test system: UO-31 renal

Structure (SMILES): COc1cc(/C=C/C(=O)c2ccc(C)cc2)ccc1Oc1nc(NCCO)nc(N2CCOCC2)n1
- GI50 [1]: > 100 µM
- TGI [1]: > 100 µM
- GI50 [2]: 9.47 µM
- TGI [2]: > 100 µM
- GI50 [3]: 5.02 µM
- TGI [3]: > 100 µM
- GI50 [4]: 2.71 µM
- TGI [4]: > 100 µM
- GI50 [5]: 3.79 µM
- TGI [5]: > 100 µM
- GI50 [6]: 3.9 µM
- TGI [6]: > 100 µM
- GI50 [7]: 16.6 µM
- TGI [7]: > 100 µM
- GI50 [8]: 8.4 µM
- TGI [8]: > 100 µM
- GI50 [9]: 4.6 µM
- TGI [9]: > 100 µM
- GI50 [10]: 1.53 µM
- TGI [10]: > 100 µM
- GI50 [11]: 0.43 µM
- TGI [11]: 1.5 µM
- GI50 [12]: 2.98 µM
- TGI [12]: > 100 µM
- GI50 [13]: 3.31 µM
- TGI [13]: > 100 µM
- GI50 [14]: 6.28 µM
- TGI [14]: > 100 µM
- GI50 [15]: 2.08 µM
- TGI [15]: 4.57 µM
- GI50 [16]: 3.92 µM
- TGI [16]: > 100 µM
- GI50 [17]: 3.22 µM
- TGI [17]: > 100 µM
- GI50 [18]: 1.72 µM
- TGI [18]: 6.02 µM
- GI50 [19]: 2.9 µM
- TGI [19]: > 100 µM
- GI50 [20]: 8.17 µM
- TGI [20]: > 100 µM
- GI50 [21]: 23 µM
- TGI [21]: > 100 µM
- GI50 [22]: > 100 µM
- TGI [22]: > 100 µM
- GI50 [23]: 1.06 µM
- TGI [23]: 7.16 µM
- GI50 [24]: 2.98 µM
- TGI [24]: > 100 µM
- GI50 [25]: > 100 µM
- TGI [25]: > 100 µM
- GI50 [26]: 3.98 µM
- TGI [26]: > 100 µM

Structure (SMILES): CC(=O)/C(N=Nc1ccc2oc(=O)ccc2c1)=C(\C)O
- GI50 [27]: 5.31 µM
- TGI [27]: 17.4 µM
- GI50 [1]: 2.34 µM
- TGI [1]: 10.4 µM
- GI50 [2]: 3.2 µM
- TGI [2]: 13.3 µM
- GI50 [28]: 0.553 µM
- TGI [28]: 11.9 µM
- GI50 [29]: 3.12 µM
- TGI [29]: 8.52 µM
- GI50 [3]: 2.16 µM
- TGI [3]: 14.6 µM
- GI50 [4]: 1.65 µM
- TGI [4]: 13.4 µM
- GI50 [30]: 1.76 µM
- TGI [30]: 3.39 µM
- GI50 [5]: 4.71 µM
- TGI [5]: 19 µM
- GI50 [6]: 2.72 µM
- TGI [6]: 15.1 µM
- GI50 [31]: 3.99 µM
- TGI [31]: 15.7 µM
- GI50 [32]: 2.23 µM
- TGI [32]: 12 µM
- GI50 [33]: 0.495 µM
- TGI [33]: 13.7 µM
- GI50 [34]: 1.12 µM
- TGI [34]: 9.15 µM
- GI50 [7]: 3.62 µM
- TGI [7]: 16.3 µM
- GI50 [8]: 2.46 µM
- TGI [8]: 7.43 µM
- GI50 [9]: 3.64 µM
- TGI [9]: 19 µM
- GI50 [35]: 2.96 µM
- TGI [35]: 12.7 µM
- GI50 [36]: 2.93 µM
- TGI [36]: 16.3 µM
- GI50 [10]: 0.528 µM
- TGI [10]: 17 µM
- GI50 [37]: 3.36 µM
- TGI [37]: 13.7 µM
- GI50 [11]: 2.92 µM
- TGI [11]: 12.4 µM
- GI50 [38]: 2.77 µM
- TGI [38]: 15.7 µM
- GI50 [39]: 3 µM
- TGI [39]: 13.6 µM
- GI50 [40]: 2.49 µM
- TGI [40]: 13 µM
- GI50 [12]: 4.77 µM
- TGI [12]: 18.1 µM
- GI50 [13]: 3.88 µM
- TGI [13]: 15.5 µM
- GI50 [41]: 2.66 µM
- TGI [41]: 12.7 µM
- GI50 [14]: 2.48 µM
- TGI [14]: 15.2 µM
- GI50 [42]: 3.37 µM
- TGI [42]: 15.8 µM
- GI50 [43]: 2.11 µM
- TGI [43]: 12.1 µM
- GI50 [44]: 2.12 µM
- TGI [44]: 10.8 µM
- GI50 [15]: 0.29 µM
- TGI [15]: 13.2 µM
- GI50 [16]: 3.81 µM
- TGI [16]: 18.7 µM
- GI50 [17]: 5.04 µM
- TGI [17]: 18.4 µM
- GI50 [45]: 2.72 µM
- TGI [45]: 13.6 µM
- GI50 [46]: 2.73 µM
- TGI [46]: 12.3 µM
- GI50 [18]: 1.89 µM
- TGI [18]: 11.4 µM
- GI50 [47]: 2.99 µM
- TGI [47]: 16.3 µM
- GI50 [19]: 5.14 µM
- TGI [19]: 21.1 µM
- GI50 [48]: 2.22 µM
- TGI [48]: 12.7 µM
- GI50 [49]: 4.11 µM
- TGI [49]: 14.1 µM
- GI50 [50]: 4.53 µM
- TGI [50]: 16.4 µM
- GI50 [51]: 2.09 µM
- TGI [51]: 4.92 µM
- GI50 [21]: 4.31 µM
- TGI [21]: 15.1 µM
- GI50 [52]: 2.58 µM
- TGI [52]: 14.7 µM
- GI50 [53]: 3.39 µM
- TGI [53]: 15 µM
- GI50 [22]: 5 µM
- TGI [22]: 18.6 µM
- GI50 [23]: 1.67 µM
- TGI [23]: 7.73 µM
- GI50 [54]: 3.15 µM
- TGI [54]: 13.7 µM
- GI50 [24]: 1.84 µM
- TGI [24]: 9.19 µM
- GI50 [25]: 2.35 µM
- TGI [25]: 12.7 µM
- GI50 [55]: 2.77 µM
- TGI [55]: 12.5 µM
- GI50 [26]: 3.36 µM
- TGI [26]: 14.8 µM
- GI50 [56]: 2.64 µM
- TGI [56]: 12.2 µM
- GI50 [57]: 0.355 µM
- TGI [57]: 11.8 µM
